Measurements as given in patent US8987294B2, “Small molecule inhibitors of the α4-paxillin interaction” (The Regents of the University of California, priority 2009, dated 2015).

Tests used:
[1] = target: interaction of GIT-1 with paxillin (Homo sapiens, UniProt P49023); experiment: ELISA, paxillin binding to immobilized Git-1; conditions: read-out: IC50, inhibition of interaction of GIT-1 with paxillin
Experimental: (§1) Thermo Electron High Binding 96 or 384 well plates were coated with 1 μg/ml neutravidin (Pierce) in 0.05M NaHCO3 pH 9.5 over night at 4° C. After blocking with 1% heat inactivated BSA in PBS for 1 hour at room temperature, plates were incubated with 1 μg/ml of recombinant αIIb-tail or α4-tail FAT or Git-1 in 1% BSA in PBS for one hour at room temperature. Plates were washed twice with 0.2% Tween in PBS to remove unbound protein and incubated with 10 μg/ml HA-tagged leupaxin or paxillin in 0.2% Tween/1% BSA in PBS in the presence or absence of small molecule compounds (5 mM DMSO stock solutions). […] Plates were washed twice and bound leupaxin or paxillin was detected by incubating with the first antibody (12CA5 ascites, 1:10,000 in 0.2% Tween/1% BSA in PBS) for 1 hour at room temperature and then with the secondary antibody (HPR-conjugated anti mouse, Biosource, 1:1,000 in 0.2% Tween, 1% BSA, PBS for 1 hour at room temperature. Binding was quantified after addition of ECL solution on a Victor luminescence plate reader. 0% inhibition control was measured with leupaxin and no compound and 100% inhibition control (background) was measured with no leupaxin and no compound. Each well was duplicated and percent inhibition was averaged. (FIG. 1A)

Jurkat T cells [2] = experiment: Modified Boyden chamber migration, Jurkat T cells on CS-1; type: cell-based; conditions: Homo sapiens, 5 hours towards SDF-1α, read-out: inhibition of T-cell migration
Experimental: (§2) Cell migration was assayed in a modified Boyden chamber assay system as described previously (8). For Jurkat T cell migration, transwell (Costar) polycarbonate membranes containing 3-μm pores were coated with 10 μg/ml CS-1, an α4 integrin binding fragment of fibronectin or 20 μg/ml ICAM in 0.1M NaHCO3, pH 8.0 overnight at 4° C. Membranes were blocked with 2% BSA in PBS for 30 minutes at room temperature. 2.0×10^5 Jurkat T cells in RPMI 1640 with 10% fetal bovine serum were added to the top chamber. Stromal-derived factor-1α (SDF-1α, R&D Systems, Minneapolis, Minn.) at a final concentration of 15 ng/ml in RPMI 1640 with 10% fetal bovine serum was added to the bottom chamber. Cells were allowed to migrate for 5 hours at 37° C. Cells in the bottom chamber were enumerated with a hemacytometer. Small molecule inhibitors were added to the top and bottom chamber in the indicated concentrations.

Jurkat T cells [3] = experiment: Cytotoxicity assay (CellTiter 96 Aqueous One Solution); type: cell-based; conditions: concentrations up to 100 μM for 24 h
Experimental: The cytotoxicity effect of compounds on cultivated cells was determined using the CellTiter 96® Aqueous One Solution Cell Proliferation Assay (Promega, Madison, Wis.) according to the manufacturer's guidelines.

[4] = target: T1, interaction of GIT-1 with leupaxin (Homo sapiens, UniProt O60711); experiment: ELISA, leupaxin binding to immobilized Git-1; conditions: read-out: IC50, inhibition of interaction of GIT-1 with leupaxin
T1 sequence (O60711 1-386): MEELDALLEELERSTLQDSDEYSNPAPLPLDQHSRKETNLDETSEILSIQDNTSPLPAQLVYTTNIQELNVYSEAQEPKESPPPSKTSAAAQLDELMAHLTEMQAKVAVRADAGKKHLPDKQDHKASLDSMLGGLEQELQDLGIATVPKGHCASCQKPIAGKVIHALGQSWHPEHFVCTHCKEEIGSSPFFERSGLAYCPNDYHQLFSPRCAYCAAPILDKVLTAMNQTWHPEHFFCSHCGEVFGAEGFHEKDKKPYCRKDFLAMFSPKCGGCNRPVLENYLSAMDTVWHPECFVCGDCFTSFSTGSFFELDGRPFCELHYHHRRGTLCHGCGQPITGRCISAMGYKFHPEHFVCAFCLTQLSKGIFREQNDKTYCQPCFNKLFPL
Experimental: as §1

Jurkat T cells [5] = experiment: Spreading assay, Jurkat T cells on CS-1; type: cell-based; conditions: 180 minutes after plating on CS-1
Experimental: (§3) Cell spreading was performed as described (11, 34). Briefly, CHO cells or Jurkat cells resuspended in Dulbecco's modified Eagle's medium or RPMI 1640, respectively, containing 0.5% fetal bovine serum and 0.2% BSA were plated on coverslips coated with 3 μg/ml GST-CS-1 in 12 well plates in the presence or absence of the small molecule inhibitor. […] The cell area was measured and analyzed using the ImageJ software. At least three independent experiments were performed and in each experiment at least 30 cells were analyzed.

[6] = target: T2, interaction of paxillin with α4-integrin (Homo sapiens, UniProt P49023); experiment: ELISA, paxillin binding to immobilized α4 tail; conditions: 10 μg/ml paxillin; read-out: IC50, inhibition of paxillin binding to α4-integrin
T2 construct: 6xHis (N); biotin acceptor peptide […]; made in house; host or cells: Escherichia coli
T2 sequence (P49023 whole entry): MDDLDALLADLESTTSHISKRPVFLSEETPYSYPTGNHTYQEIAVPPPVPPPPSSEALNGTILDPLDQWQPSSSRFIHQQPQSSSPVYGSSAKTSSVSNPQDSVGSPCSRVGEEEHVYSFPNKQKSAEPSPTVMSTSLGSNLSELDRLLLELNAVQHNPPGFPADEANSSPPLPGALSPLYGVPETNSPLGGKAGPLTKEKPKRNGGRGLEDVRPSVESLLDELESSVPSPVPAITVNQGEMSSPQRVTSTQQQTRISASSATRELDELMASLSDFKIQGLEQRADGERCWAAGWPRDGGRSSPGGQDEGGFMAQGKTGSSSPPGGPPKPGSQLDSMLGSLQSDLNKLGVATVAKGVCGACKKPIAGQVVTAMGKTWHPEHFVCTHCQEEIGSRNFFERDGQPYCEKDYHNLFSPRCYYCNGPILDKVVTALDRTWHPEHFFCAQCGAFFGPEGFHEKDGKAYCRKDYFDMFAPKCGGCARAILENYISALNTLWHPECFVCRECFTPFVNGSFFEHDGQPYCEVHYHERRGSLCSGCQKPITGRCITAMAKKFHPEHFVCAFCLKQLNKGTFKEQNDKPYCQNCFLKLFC
Experimental: as §1

[7] = system: Jurkat T cells expressing a mutated α4-integrin (α4(Y991A)); experiment: Modified Boyden chamber migration, JB4-Y991A cells; type: cell-based
Experimental: as §2

[8] = system: CHO wildtype cells that do not express α4; experiment: Spreading assay, CHO wildtype cells on fibronectin; type: cell-based, Chinese Hamster; conditions: plated on fibronectin; data not shown
Experimental: as §3, with “containing 0.5% fetal bovine serum and 0.2% BSA were plated on coverslips coated with 3 μg/ml GST-CS-1 in 12 well plates in the” left out

C57B1/6 mice = experiment: Thioglycollate-induced peritonitis; type: in vivo
Experimental: Male C57B1/6 mice 5-6 weeks old were injected intraperitoneally with 1 ml sterile 4% (wt/vol) thioglycollate (Sigma-Aldrich). Mice were injected with 16.5 mg/kg 6-B345TTQ, 6-234TTQ or the equal volume of vehicle only every 8-12 hours. At various time points after injection, mice were sacrificed and subjected to peritoneal lavage with 4 ml PBS containing 5 mM EDTA and 1% BSA. Total leukocytes in lavage samples were enumerated with a hemocytometer. Cells (1×10^5) were attached to glass slides with a Cytospin4 instrument (ThermoSharidon) and stained with modified Wright-Giemsa stain. Differential cell counts were performed on 5 individual fields, each containing 100 cells by light microscopy.

[9] = target: T3, interaction of FAT with paxillin (Homo sapiens, UniProt P49023); experiment: ELISA, paxillin binding to immobilized FAT
T3 construct: Recombinant 6×His-FAT, the focal adhesion targeting domain of pp125^FAK; 6xHis (N); made in house; host or cells: E. coli BL21(DE3)pLysS
T3 sequence (P49023 whole entry, the tested form may be a part): as the sequence (P49023 whole entry) above
Experimental: as §1

Jurkat T cells [10] = experiment: Modified Boyden chamber migration, Jurkat T cells on ICAM-1 (αLβ2-mediated); type: cell-based
Experimental: as §2

[11] = target: T4, interaction of leupaxin with the focal adhesion targeting sequence of pp125^FAK (FAT) (Homo sapiens, UniProt O60711); experiment: ELISA, leupaxin binding to immobilized FAT; conditions: concentrations up to 100 μM
T4 construct: Recombinant 6×His-FAT, the focal adhesion targeting domain of pp125^FAK; 6xHis (N); made in house; host or cells: E. coli BL21(DE3)pLysS
T4 sequence (O60711 1-386): T1 sequence (O60711 1-386)
Experimental: as §1

CHO-S998A cells = experiment: Spreading assay, CHO-S998A cells on CS-1; type: cell-based, Chinese Hamster; conditions: CS-1 coated cover slips, 45 minutes
Experimental: as §3

[12] = target: T5, native paxillin and α4-integrin (Homo sapiens, UniProt P49023); experiment: Coimmunoprecipitation of α4 with paxillin from Jurkat T cells; type: binding; conditions: anti-biotin blot
T5 construct: endogenous in cells; host or cells: Jurkat T cells
T5 sequence (P49023 whole entry): as above
Experimental: For endogenous Coimmunoprecipitation experiments, Jurkat T-cells were washed in ice-cold PBS and incubated in 1.6 mM Sulfo-NHS-Biotin (Pierce, Chemical Co.) for 30 minutes at room temperature. Excess biotin was quenched and washed from the cells with PBS/Glycine. Cell lysates were then prepared with lysis buffer containing 20 mM Tris, pH 7.4, 150 mM NaCl, 10 mM EDTA, 1% Triton X-100, 0.05% Tween 20 and a protease inhibitor cocktail (Roche Diagnostics Corp.). Lysate containing 200 μg total cell protein was immunoprecipitated using 2 μg rabbit anti paxillin (RB-4358). Immunoprecipitated proteins were separated by SDS-PAGE (8% Bis-Tris, denaturating and reducing) and transferred to nitrocellulose membranes. Precipitated, biotinylated proteins were detected using HRP-Streptavidin (1:10,000).

[13] = target: T6, interaction of leupaxin with α4-integrin (Homo sapiens, UniProt O60711); experiment: ELISA, leupaxin binding to immobilized α4 tail
T6 construct: Biotinylated α4-integrin cytoplasmic tail was coated to the plates; 6xHis (N); biotin acceptor peptide […]; made in house; host or cells: Escherichia coli
T6 sequence (O60711 1-386): T1 sequence (O60711 1-386)
Experimental: as §1
Inhibition of the α4 leupaxin interaction was measured using the above described ELISA assay. Biotinylated α4-integrin cytoplasmic tail was coated to the plates and incubated with increasing concentrations of leupaxin in the presence of different concentrations of inhibitor or no inhibitor. The data were fitted to equations for models of competitive, non-competitive, uncompetitive of mixed inhibition using Graph Pad Prism 5.0 to test which model fits the best.

THP-1 cells = experiment: Modified Boyden chamber migration, THP-1 cells on CS-1; type: cell-based; conditions: Homo sapiens, 3 hours, read-out: inhibition of monocyte migration
Experimental: as §2
THP-1 cells were cultured in RPMI1640 containing 0.1% fetal bovine serum for 16 hours before 1×10^6 cells were added to the top chamber of transwells with CS1-coated membranes that contained 5-μm pores and allowed to migrate for 3 hours towards RPMI containing 0.1% fetal bovine serum.

Sequence of interaction of GIT-1 with paxillin (P49023 whole entry): as above

In the case of `COc1cc(C2CC(=O)Nc3c2cc(Br)c2ccccc32)cc(OC)c1OC` (centres unmarked) [6-B345TTQ], the IC50 [1] is reported as 2400 nM, the inhibition at 50 µM (Jurkat T cells [2]) is reported as 56.4% and the “cytotoxicity (cell viability)” value (Jurkat T cells [3]) is reported as “not cytotoxic”. The IC50 [4] was 25 µM, the “spreading of Jurkat T cells” value (Jurkat T cells [5]) was “dose dependent increase” and the IC50 [6] was 10.8 µM. For the same compound, the “residual α4-dependent migration of α4(Y991A) Jurkat T cells” value [7] was “not further decreased”, the “spreading of CHO wildtype cells” value [8] was “not increased” and the “reduction of infiltration of peritoneal monocytes/macrophages” value (C57B1/6 mice; 16.5 mg/kg every 8-12 hours i.p., 48 hours after thioglycollate) was 50%. For the same compound, the “recruitment of lymphocytes to the peritoneum” value (C57B1/6 mice; 16.5 mg/kg every 8-12 hours, 48 hours and 72 hours after thioglycollate) was “reduction was not statistically significant”, the recruitment of neutrophils (C57B1/6 mice; 16.5 mg/kg every 8-12 hours, vs vehicle) was “no difference” and the “inhibition of the interaction of FAT with paxillin” value [9] was “did inhibit”. The “effect on αLβ2-mediated Jurkat T cell migration on ICAM-1” value (Jurkat T cells [10]) was “not significantly reduced”, the “effect on the binding of FAT to leupaxin” value [11] was “no effect” and the “spreading of CHO-S998A cells” value (CHO-S998A cells) was “increased the spreading of CHO-S998A cells to a level comparable with CHO-S998D cells”. For the same compound, the “amount of α4 co-immunoprecipitated with paxillin” value [12] was “decreased with increasing concentrations”, the IC50 ([13]; 10 μg/ml leupaxin, read-out: IC50, inhibition of leupaxin binding to α4-integrin) was 18 µM and the “nature of inhibition of the α4 leupaxin interaction” value ([13]; increasing leupaxin, various inhibitor concentrations, model fit Graph Pad Prism 5.0) was “competitive inhibitor”. The “α-value of mixed model of inhibition” value ([13]; mixed model fit) was ~2.958×10^12 and the inhibition at 50 µM (THP-1 cells) was 52.6%.
